# Experimental data published in ChEMBL document CHEMBL3593201, “Isolation, Characterization, and Synthesis of the Barrettides: Disulfide-Containing Peptides from the Marine Sponge Geodia barretti” (J Nat Prod, 2015).
# The source made the active and inactive calls. The rule behind the calls is not given here. Peptide text beside a SMILES is read from it.
# Columns and labels:
# Staphylococcus aureus [1] = assay: Antimicrobial activity against Staphylococcus aureus ATCC 29213 up to 80 uM; assay type: functional, organism-based
# Amphibalanus improvisus [2] = assay: Toxicity against Balanus improvisus barnacle larvae assessed as number of dead larvae at 0.06 to 6 uM incubated for 24 hrs; assay type: organism-based; conditions: in vivo
# Amphibalanus improvisus [3] = assay: Anti-fouling activity against Balanus improvisus barnacle larvae assessed as settlement propensity at 6 uM incubated for 4 days (reference value: 64 +/- 8%); assay type: functional
# Escherichia coli [4] = assay: Antimicrobial activity against Escherichia coli ATCC 25922 up to 80 uM; assay type: functional, organism-based
# Amphibalanus improvisus [5] = assay: Anti-fouling activity against Balanus improvisus barnacle larvae assessed as inhibition of settlement propensity at 6 uM incubated for 4 days; assay type: functional, organism-based
# Amphibalanus improvisus [6] = assay: Anti-fouling activity against Balanus improvisus barnacle larvae assessed as inhibition of settlement propensity at 0.6 uM incubated for 4 days; assay type: functional, organism-based
# Escherichia coli [7] = assay: Antimicrobial activity against Escherichia coli ATCC 25922; assay type: functional
# Staphylococcus aureus [8] = assay: Antimicrobial activity against Staphylococcus aureus ATCC 29213; assay type: functional
SMILES,Activity (Staphylococcus aureus [1]),Activity (Amphibalanus improvisus [2]),Activity (Amphibalanus improvisus [3]),Activity (Escherichia coli [4]),inhibition (Amphibalanus improvisus [5]),inhibition (Amphibalanus improvisus [6]),MIC (Escherichia coli [7]),MIC (Staphylococcus aureus [8])
"[H][C@@]12CCCN1C(=O)[C@H](CC(C)C)NC(=O)[C@]1([H])CSSC[C@]([H])(NC(=O)[C@H](Cc3ccccc3)NC(=O)[C@@H](NC(=O)[C@@H]3CCCN3C(=O)[C@H](CO)NC(=O)[C@@H](NC(=O)[C@@H](N)CC(=O)O)C(C)C)CSSC[C@@H](C(=O)N[C@@H](CC(=O)O)C(=O)N[C@@H](C)C(=O)N[C@@H](CO)C(=O)N[C@@H](CCCNC(=N)N)C(=O)NCC(=O)N[C@H](C(=O)N[C@@H](CC(N)=O)C(=O)N3CCC[C@H]3C(=O)O)[C@@H](C)O)NC(=O)[C@H](CC(N)=O)NC(=O)[C@H](CC(=O)O)NC2=O)C(=O)N[C@@H](C(C)C)C(=O)N[C@@H](CCC(=O)O)C(=O)N[C@@H](CC(=O)O)C(=O)N[C@@H](CCC(=O)O)C(=O)N[C@@]([H])([C@@H](C)O)C(=O)N[C@@H](CO)C(=O)NCC(=O)N[C@@H](C)C(=O)N[C@@H](CCCCN)C(=O)N[C@@]([H])([C@@H](C)O)C(=O)N1 (HELM PEPTIDE1{D.V.S.P.C.F.C.V.E.D.E.T.S.G.A.K.T.C.L.P.D.N.C.D.A.S.R.G.T.N.P}$PEPTIDE1,PEPTIDE1,5:R3-23:R3|PEPTIDE1,PEPTIDE1,7:R3-18:R3$$$V2.0)",inactive,Non-toxic,8%,inactive,Active,–,–,–
"[H][C@@]12CCCN1C(=O)[C@H](C(C)C)NC(=O)[C@]1([H])CSSC[C@]([H])(NC(=O)[C@H](Cc3ccccc3)NC(=O)[C@@H](NC(=O)[C@@H]3CCCN3C(=O)[C@H](CO)NC(=O)[C@@H](NC(=O)[C@@H](N)CC(=O)O)C(C)C)CSSC[C@@H](C(=O)N[C@@H](CC(=O)O)C(=O)N[C@@H](C)C(=O)N[C@@H](CO)C(=O)N[C@@H](CCCNC(=N)N)C(=O)NCC(=O)N[C@H](C(=O)N[C@@H](CC(N)=O)C(=O)N3CCC[C@H]3C(=O)O)[C@@H](C)O)NC(=O)[C@H](CC(N)=O)NC(=O)[C@H](CC(=O)O)NC2=O)C(=O)N[C@@H](C(C)C)C(=O)N[C@@H](CCC(=O)O)C(=O)N[C@@H](CC(=O)O)C(=O)N[C@@H](CCC(=O)O)C(=O)N[C@@]([H])([C@@H](C)O)C(=O)N[C@@H](CO)C(=O)NCC(=O)N[C@@H](C)C(=O)N[C@@H](CCCCN)C(=O)N[C@@]([H])([C@@H](C)O)C(=O)N1 (HELM PEPTIDE1{D.V.S.P.C.F.C.V.E.D.E.T.S.G.A.K.T.C.V.P.D.N.C.D.A.S.R.G.T.N.P}$PEPTIDE1,PEPTIDE1,5:R3-23:R3|PEPTIDE1,PEPTIDE1,7:R3-18:R3$$$V2.0)",inactive,Non-toxic,15%,inactive,Active,Active,–,–
CC[C@H](C)[C@H](NC(=O)[C@H](CCCCN)NC(=O)[C@H](CCC(=O)O)NC(=O)[C@H](CCCCN)NC(=O)[C@H](CO)NC(=O)[C@H](CCCCN)NC(=O)[C@H](CCCNC(=N)N)NC(=O)[C@H](Cc1ccccc1)NC(=O)[C@H](Cc1ccccc1)NC(=O)[C@H](CC(=O)O)NC(=O)CNC(=O)[C@H](CC(C)C)NC(=O)[C@@H](N)CC(C)C)C(=O)NCC(=O)N[C@@H](CCCCN)C(=O)N[C@@H](CCC(=O)O)C(=O)N[C@@H](Cc1ccccc1)C(=O)N[C@@H](CCCCN)C(=O)N[C@@H](CCCNC(=N)N)C(=O)N[C@H](C(=O)N[C@H](C(=O)N[C@@H](CCC(N)=O)C(=O)N[C@@H](CCCNC(=N)N)C(=O)N[C@H](C(=O)N[C@@H](CCCCN)C(=O)N[C@@H](CC(=O)O)C(=O)N[C@@H](Cc1ccccc1)C(=O)N[C@@H](CC(C)C)C(=O)N[C@@H](CCCNC(=N)N)C(=O)N[C@@H](CC(N)=O)C(=O)N[C@@H](CC(C)C)C(=O)N[C@H](C(=O)N1CCC[C@H]1C(=O)N[C@@H](CCCNC(=N)N)C(=O)N[C@H](C(=O)N[C@@H](CCC(=O)O)C(=O)N[C@@H](CO)C(=O)O)[C@@H](C)O)C(C)C)[C@@H](C)CC)C(C)C)[C@@H](C)CC [CATHELICIDIN],–,–,–,–,–,–,1 µM,1 µM
